The values below come from paper PMC3747139 (PLoS ONE, 2013).

For one series, the system named is HQF DNA [d(T2AG3)4]. The series is described as follows: SYBR Green melting study with HQF DNA. In kind it is binding, human. To be noted: melting temperature of HQF DNA (5 µM) in presence of 1 µM ligand. As to the method: When quadruplex DNA melts to form ssDNA structure, SG fluorescence intensity gradually reduces as SG has no binding to ssDNA. Each time, 5 µM of HQF DNA [d(T2AG3)4)], 5 µM of dsDNA (prepared by mixing equal concentration of poly-dA-dT and poly-dT-dA), 5 µM ssDNA ( poly dT alone) and 1 µM of each ligand was incubated at 4°C for 16 h, and used for melting studies. […] Affinity, stoichiometry and thermodynamic parameters for quadruplex-ligand complex were studied with 60 µM of ligand and 10 µM of HQF DNA using Microcal VP-ITC (Northampton, MA, USA). Ligand addition to G-quadruplex DNA was made every 180 seconds. Titration experiments were performed thrice and blank correction was made each time to minimize error.

Series [1] is described as follows: Cell count assay (trypan blue). In kind it is cell-based. The arrangement: concentration or dose not given beside the values. To be noted: human; for viability at 24 h: read-out: Number of viable cells after 24 h of ligand treatment; for viability at 48 h: read-out: Number of viable cells after 48 h of ligand treatment. As to the method:
(§1) Normal and tumor cell lines were seeded at 20000–40000 cells/cm^2 with 0.2 mL/cm^2 media and incubated for 48 h at 37°C, 6% CO2, 95% relative humidity. […] After 24 h and 48 h of incubation, cells were washed with 300 µl PBS or 0.02% EDTA, trypsinized, followed by harvesting at 37°C. 200 µl cell suspension was transferred into 1.5 ml microcentrifuge tube. To the cell suspension, 300 µl PBS followed by 500 µl of 0.4% trypan blue solution was added. To get the homogenised solution, the microcentrifuge tube was gently tapped for 5 min, 20 µl of cell suspension was loaded in to a chamber of the haemocytometer.

The next series has as its system MCF-7. In words: Cell count assay (trypan blue). To be noted: for Number of viable cells after 24 h of ligand treatment: MCF-7, 24 h; for Number of viable cells after 48 h of ligand treatment: MCF-7, 48 h. It counts as cell-based, human. The method, then:
as §1

The next series deals with A549. The series is described as follows: Cell count assay (trypan blue). Conditions: for Number of viable cells after 24 h of ligand treatment: A549, 24 h; for Number of viable cells after 48 h of ligand treatment: A549, 48 h. In kind it is cell-based, human. As to the method:
as §1

The next series concerns B16F10. The series is described as follows: Cell count assay (trypan blue). It counts as cell-based, human. To be noted: for Number of viable cells after 24 h of ligand treatment: B16F10, 24 h; for Number of viable cells after 48 h of ligand treatment: B16F10, 48 h. As to the method: as §1
[2] abbreviates: CRL-2115 cells (normal cell line), CRL-2115, 24 h.
Where [3] appears, read: CRL-2115 cells (normal cell line), CRL-2115, 48 h.
[4] abbreviates: CRL-2120 cells (normal cell line), CRL-2120, 24 h.
The mark [5] stands for this setting: CRL-2120 cells (normal cell line), CRL-2120, 48 h.
[6] abbreviates: NCM-460 cells (normal cell line), NCM-460, 24 h.
[7] abbreviates: NCM-460 cells (normal cell line), NCM-460, 48 h.

Read-outs that look alike come from different tables or passages of the source. Marks after values point to notes of the source that are not given here.

In the case of `c1ccc(Cn2nnc(-c3ccccc3)c2-c2ccccc2)cc1` [Ligand L4, 1-Benzyl-4,5-diphenyl-1H-1,2,3-triazole], in the series with HQF DNA [d(T2AG3)4], the Tm is reported as 32 ^o C. In addition, the viability at 24 h in series [1] (setting [2]), in series [1] (setting [4]) and in series [1] (setting [6]) was 80 to 90% each time. The viability at 48 h in series [1] (setting [3]) lay in the range of 50 to 60%; in series [1] (setting [5]), 80 to 90%; in series [1] (setting [7]) it was 50 to 60%. In addition, the figures for the “Number of viable cells after 24 h of ligand treatment” value with MCF-7, with A549 and in the series on B16F10 were “++/++ (Viable cells in the range of 50%–60%)”, “+ (Viable cells in the range of 80%–90%)” and “++/++ (Viable cells in the range of 50%–60%)”, respectively. Also, the “Number of viable cells after 48 h of ligand treatment” value is reported as “++/++ (Viable cells in the range of 50%–60%)” with MCF-7, “++ (Viable cells in the range of 50%–60%)” in the series on A549 and “++/++ (Viable cells in the range of 50%–60%)” with B16F10.
As for `CCCCc1nnn(Cc2ccccc2)c1/C=C/c1ccccc1` [Ligand L5, (E)-1-Benzyl-4-butyl-5-styryl-1H-1,2,3-triazole], the Tm in the series on HQF DNA [d(T2AG3)4] is 33 ^o C. The viability at 24 h in series [1] (setting [2]), in series [1] (setting [4]) and in series [1] (setting [6]) was 80 to 90% in each case. Also, the viability at 48 h in series [1] (setting [3]), in series [1] (setting [5]) and in series [1] (setting [7]) was 50 to 60% each time. Further, the figures for the “Number of viable cells after 24 h of ligand treatment” value in the series on MCF-7, in the series with A549 and with B16F10 were “++/++ (Viable cells in the range of 50%–60%)”, “+ (Viable cells in the range of 80%–90%)” and “++/++ (Viable cells in the range of 50%–60%)”, respectively. The “Number of viable cells after 48 h of ligand treatment” value in the series on MCF-7 is “++/++ (Viable cells in the range of 50%–60%)”; with A549, “++ (Viable cells in the range of 50%–60%)”; in the series with B16F10 it was “++/++ (Viable cells in the range of 50%–60%)”.
With `CCCCc1nnn(Cc2ccccc2)c1-c1cccc(O)c1` [Ligand L6, 3-(3-Benzyl-5-butyl-3H-1,2,3-triazol-4-yl)phenol], in the series on HQF DNA [d(T2AG3)4], the Tm was 33 ^o C. The values for the viability at 24 h in series [1] (setting [2]), in series [1] (setting [4]) and in series [1] (setting [6]) were 80 to 90%, 80 to 90% and 50 to 60%, respectively. Further, the viability at 48 h in series [1] (setting [3]), in series [1] (setting [5]) and in series [1] (setting [7]) was 50 to 60% in each case. The entries for the “Number of viable cells after 24 h of ligand treatment” value with MCF-7, in the series on A549 and in the series on B16F10 were “+ (Viable cells in the range of 80%–90%)”, “++/++ (Viable cells in the range of 50%–60%)” and “+ (Viable cells in the range of 80%–90%)”, respectively. Further, the “Number of viable cells after 48 h of ligand treatment” value in the series with MCF-7 is “++ (Viable cells in the range of 50%–60%)”; in the series on A549, “++/++ (Viable cells in the range of 50%–60%)”; in the series on B16F10, “++ (Viable cells in the range of 50%–60%)”.
On to `c1ccc(-c2nnn(CC3CCCCO3)c2-c2ccccc2)cc1` (stereo not drawn) [Ligand L7, 4,5-Diphenyl-1-((tetrahydro-2H-pyran-2-yl)methyl)-1H-1,2,3-triazole], for which the Tm with HQF DNA [d(T2AG3)4] is 29 ^o C. The viability at 24 h in series [1] (setting [2]), in series [1] (setting [4]) and in series [1] (setting [6]) was 80 to 90% in each case. Moreover, the viability at 48 h in series [1] (setting [3]) lay within 80 to 90%; in series [1] (setting [5]), 50 to 60%; in series [1] (setting [7]) it was 50 to 60%. The “Number of viable cells after 24 h of ligand treatment” value in the series on MCF-7 is “+ (Viable cells in the range of 80%–90%)”; in the series on A549, “+/+ (Viable cells in the range of 80%–90%)”; with B16F10 it was “+ (Viable cells in the range of 80%–90%)”. The figures for the “Number of viable cells after 48 h of ligand treatment” value in the series on MCF-7, in the series on A549 and in the series on B16F10 were “++ (Viable cells in the range of 50%–60%)”, “+/+ (Viable cells in the range of 80%–90%)” and “++ (Viable cells in the range of 50%–60%)”, respectively.
`Oc1cccc(-c2c(-c3ccccc3)nnn2CC2CCCCO2)c1` (stereo not drawn) [Ligand L8]: the Tm with HQF DNA [d(T2AG3)4] is 27 ^o C.
As to `CCOC(=O)c1nnn(Cc2ccccc2)c1-c1ccccc1` [Ligand L9, Ethyl 1-benzyl-5-phenyl-1H-1,2,3-triazole-4-carboxylate], the Tm with HQF DNA [d(T2AG3)4] is reported as 29 ^o C. The viability at 24 h in series [1] (setting [2]), in series [1] (setting [4]) and in series [1] (setting [6]) was 80 to 90% in each case. Further, the viability at 48 h was in the range of 50 to 60% in series [1] (setting [3]), 80 to 90% in series [1] (setting [5]) and 80 to 90% in series [1] (setting [7]). The “Number of viable cells after 24 h of ligand treatment” value in the series on MCF-7 was “+/+ (Viable cells in the range of 80%–90%)”; with A549 it was “+ (Viable cells in the range of 80%–90%)”; in the series on B16F10, “+ (Viable cells in the range of 80%–90%)”. Further, the “Number of viable cells after 48 h of ligand treatment” value is reported as “+/+ (Viable cells in the range of 80%–90%)” in the series with MCF-7, “++ (Viable cells in the range of 50%–60%)” in the series on A549 and “++ (Viable cells in the range of 50%–60%)” with B16F10.
As to `CCOC(=O)c1nnn(Cc2ccccc2)c1/C=C/c1ccccc1` [Ligand L10, (E)-Ethyl 1-benzyl-5-styryl-1H-1,2,3-triazole-4-carboxylate], the Tm in the series on HQF DNA [d(T2AG3)4] is 33 ^o C. For the same compound, the viability at 24 h in series [1] (setting [2]), in series [1] (setting [4]) and in series [1] (setting [6]) was 80 to 90% in each case. Further, the figures for the viability at 48 h in series [1] (setting [3]), in series [1] (setting [5]) and in series [1] (setting [7]) were 80 to 90%, 80 to 90% and 50 to 60%, respectively. Also, the results for the “Number of viable cells after 24 h of ligand treatment” value in the series on MCF-7, in the series on A549 and in the series on B16F10 were “+ (Viable cells in the range of 80%–90%)”, “+/+ (Viable cells in the range of 80%–90%)” and “+ (Viable cells in the range of 80%–90%)”, respectively. In addition, the “Number of viable cells after 48 h of ligand treatment” value in the series with MCF-7 is given as “++ (Viable cells in the range of 50%–60%)”; in the series with A549 it was “+/+ (Viable cells in the range of 80%–90%)”; with B16F10, “++ (Viable cells in the range of 50%–60%)”.
Regarding `CCOC(=O)c1nnn(Cc2ccccc2)c1-c1cccc(O)c1` [Ligand L11, Ethyl 1-benzyl-5-(3-hydroxyphenyl)-1H-1,2,3-triazole-4-carboxylate], the Tm in the series on HQF DNA [d(T2AG3)4] is 28 ^o C. Moreover, the viability at 24 h in series [1] (setting [2]), in series [1] (setting [4]) and in series [1] (setting [6]) was 80 to 90% throughout. The viability at 48 h in series [1] (setting [3]), in series [1] (setting [5]) and in series [1] (setting [7]) was 80 to 90% each time. For the same compound, the “Number of viable cells after 24 h of ligand treatment” value in the series with MCF-7, with A549 and in the series on B16F10 was “+ (Viable cells in the range of 80%–90%)” each time. Also, the “Number of viable cells after 48 h of ligand treatment” value in the series with MCF-7, in the series on A549 and with B16F10 was “++ (Viable cells in the range of 50%–60%)” in each case.
`C(=C\c1c(-c2ccccc2)nnn1CC1CCCCO1)/c1ccccc1` (stereo not drawn) [Ligand L12, (E)-4-Phenyl-5-styryl-1-((tetrahydro-2H-pyran-2-yl)methyl)-1H-1,2,3-triazole]: in the series with HQF DNA [d(T2AG3)4], the Tm was 31 ^o C. The viability at 24 h in series [1] (setting [2]), in series [1] (setting [4]) and in series [1] (setting [6]) was 80 to 90% throughout. Also, the viability at 48 h in series [1] (setting [3]) lay in the range of 80 to 90%; in series [1] (setting [5]), 80 to 90%; in series [1] (setting [7]) it was 50 to 60%. Moreover, the “Number of viable cells after 24 h of ligand treatment” value is on record as “+ (Viable cells in the range of 80%–90%)” in the series on MCF-7, “+/+ (Viable cells in the range of 80%–90%)” in the series with A549 and “+ (Viable cells in the range of 80%–90%)” with B16F10. Further, the “Number of viable cells after 48 h of ligand treatment” value is “++ (Viable cells in the range of 50%–60%)” in the series with MCF-7, “+/+ (Viable cells in the range of 80%–90%)” with A549 and “++ (Viable cells in the range of 50%–60%)” with B16F10.
